# Experimental data taken from EP0889886B1, “NOVEL PHENANTHRIDINES SUBSTITUTED IN THE 6 POSITION” (ALTANA Pharma AG, priority 1996, dated 1997).
# Counter-ions that a name gives are not always drawn.
# Test system: PDE IV
# Test: Inhibition of PDE IV activity (method of Bauer and Schwabe, adapted to microtiter plates)
# Type: biochemical
# Settings: Hemmung der PDE IV-Aktivität
# Procedure: Hierbei erfolgt im ersten Schritt die PDE-Reaktion. In einem zweiten Schritt wird das entstandene 5'-Nukleotid durch eine 5'-Nukleotidase des Schlangengiftes von Crotalus Atrox zum ungeladenen Nukleosid gespalten. Im dritten Schritt wird das Nukleosid auf lonenaustauschsäulen vom verbliebenen geladenen Substrat getrennt. Die Säulen werden mit 2 ml 30 mM Ammoniumformiat (pH 6,0) direkt in Minivials eluiert, in die noch 2 ml Szintillatorflüssigkeit zur Zählung gegeben wird.
row,Structure (SMILES),-log IC50
1,"COc1cc2c(cc1OC)[C@H]1CCCC[C@H]1N=C2c1ccc(NS(=O)(=O)c2ccc(C)cc2)cc1 (racemic) [Verbindung 1, (+/-)-cis-8,9-Dimethoxy-6-(4-p-toluolsulfonamidophenyl)-1,2,3,4,4a,10b-hexahydrophenanthridin]",7.73
2,"CCOc1cc2c(cc1OCC)[C@H]1CCCC[C@H]1N=C2c1ccc(NS(=O)(=O)c2ccc(C)cc2)cc1 (racemic) [Verbindung 2, (+/-)-cis-8,9-Diethoxy-6-(4-p-toluolsulfonamidophenyl)-1,2,3,4,4a,10b-hexahydrophenanthridin]",8.39
3,"COc1cc2c(cc1OC1CCCC1)[C@H]1CCCC[C@H]1N=C2c1ccc(NS(=O)(=O)c2ccc(C)cc2)cc1 (racemic) [Verbindung 3, (+/-)-cis-9-Cyclopentyloxy-8-methoxy-6-(4-p-toluolsulfonamidophenyl)-1,2,3,4,4a,10bhexahydrophenanthridin]",7.76
4,"COc1cc2c(cc1OC1CCCC1)C(c1ccc(NS(=O)(=O)c3ccc(C)cc3)cc1)=N[C@@H]1CCCC[C@H]21 (racemic) [Verbindung 4, (+/-)-cis-8-Cyclopentyloxy-9-methoxy-6-(4-p-toluolsulfonamidophenyl)-1,2,3,4,4a,10bhexahydrophenanthridin]",6.12
5,"COc1cc2c(cc1OC)[C@@H]1CCCC[C@@H]1N=C2c1ccc([N+](=O)[O-])cc1 (racemic) [Verbindung 5, (+/-)-cis-8,9-Dimethoxy-6-(4-nitrophenyl)-1,2,3,4,4a,10b-hexahydrophenanthridin]",7.22
6,"COc1cc2c(cc1OC)[C@H]1CCCC[C@H]1N=C2c1c(Cl)cccc1Cl (racemic) [Verbindung 6, (+/-)-cis-8,9-Dimethoxy-6-(2,6-dichlorphenyl)-1,2,3,4,4a,10b-hexahydrophenanthridin]",6.77
7,"COc1ccc(C2=N[C@H]3CCCC[C@H]3c3cc(OC)c(OC)cc32)cc1OC (racemic) [Verbindung 7, (+/-)-cis-8,9-Dimethoxy-6-(3,4-dimethoxyphenyl)-1,2,3,4,4a,10b-hexahydrophenanthridin]",6.44
8,"COc1cc2c(cc1OC)[C@H]1CC(C)=C(C)C[C@H]1N=C2c1ccc(NS(=O)(=O)c2ccc(C)cc2)cc1 (racemic) [Verbindung 8, (+/-)-cis-8,9-Dimethoxy-2,3-dimethyl-6-(4-p-toluolsulfonamidophenyl)-1,4,4a,10b-tetrahydrophenanthridin]",6.91
9,"COc1cc2c(cc1OC)C1CCCCC1N=C2c1ccc(NS(=O)(=O)c2ccc(C)cc2)cc1 (racemic) [Verbindung 9, (+/-)-trans-8,9-Dimethoxy-6-(4-p-toluolsulfonamidophenyl)-1,2,3,4,4a,10b-hexahydrophenanthridin-hydrochtorid]",6.17
10,"COc1cc2c(cc1OC)C1CC=CCC1N=C2c1ccc(NS(=O)(=O)c2ccc(C)cc2)cc1 (racemic) [Verbindung 10, (+/-)-trans-8,9-Dimethoxy-6-(4-p-toluolsulfonamidophenyl)-1,4,4a,10b-tetrahydrophenanthridin-hydrochlorid]",6.10
11,"COc1cc2c(cc1OC)C1C3CCC(CC3)C1N=C2c1ccc(NS(=O)(=O)c2ccc(C)cc2)cc1 (racemic) [Verbindung 12, (+/-)-trans-8,9-Dimethoxy-1,4-ethano-6-(4-p-toluolsulfonamidophenyl)-1,2,3,4,4a,10bhexahydrophenanthridin]",5.77
12,"CCOc1cc2c(cc1OCC)[C@@H]1CCCC[C@@H]1N=C2c1ccc(OC(C)=O)cc1 (racemic) [Verbindung 13, (+/-)-cis-6-(4-Acetoxyphenyl)-8,9-diethoxy-1,2,3,4,4a,10b-hexahydrophenanthridin]",8.43
13,"CCOc1cc2c(cc1OCC)[C@@H]1CCCC[C@@H]1N=C2c1ccc(Cc2ccccc2)cc1 (racemic) [Verbindung 14, (+/-)-cis-6-(4-Benzylphenyl)-8,9-diethoxy-1,2,3,4,4a,10b-hexahydrophenanthridin]",8.08
14,"CCOc1cc2c(cc1OCC)[C@@H]1CCCC[C@@H]1N=C2c1ccc(-c2ccccc2)cc1 (racemic) [Verbindung 15, (+/-)-cis-6-Biphenyl-8,9-diethoxy-1,2,3,4,4a,10b-hexahydrophenanthridin]",7.98
15,"CCOc1cc2c(cc1OCC)[C@H]1CCCC[C@H]1N=C2c1ccc(F)cc1 (racemic) [Verbindung 16, (+/-)-cis-8,9-Diethoxy-6-(4-fluorphenyl)-1,2,3,4,4a,10b-hexahvdrophenanthridin]",7.93
16,"CCOc1cc2c(cc1OCC)[C@H]1CCCC[C@H]1N=C2c1ccc(C(F)(F)F)cc1 (racemic) [Verbindung 17, (+/-)-cis-8,9-Diethoxy-7-(4-trifluormethylphenyl)-1,2,3,4,4a,10b-hexahydrophenanthridin]",8.00
17,"CCOc1cc2c(cc1OCC)[C@@H]1CCCC[C@@H]1N=C2c1ccc(C#N)cc1 (racemic) [Verbindung 18, (+/-)-cis-8,9-Diethoxy-6-(4-cyanophenyl)-1,2,3,4,4a,10b-hexahydrophenanthridin]",8.24

row,Structure (SMILES),-log IC50
1,"CCOc1cc2c(cc1OCC)[C@H]1CCCC[C@H]1N=C2c1ccc(OC(F)(F)F)cc1 (racemic) [Verbindung 19, (+/-)-cis-8,9-Diethoxy-6-(4-trifluormethoxyphenyl)-1,2,3,4,4a,10b-hexahydrophenanthridin]",7.97
2,"CCOc1cc2c(cc1OC)C(c1ccc(NS(=O)(=O)c3ccc(C)cc3)cc1)=N[C@@H]1CCCC[C@H]21 (racemic) [Verbindung 20, (+/-)-cis-9-Ethoxy-8-methoxy-6-(4-p-toluolsulfonamidophenyl)-1,2,3,4,4a,10b-hexahydrophenanthridin]",9.05
3,"CCOc1cc2c(cc1OC)C(c1ccc([N+](=O)[O-])cc1)=N[C@H]1CCCC[C@@H]21 (racemic) [Verbindung 21, (+/-)-cis-9-Ethoxy-8-methoxy-6-(4-nitrophenyl)-1,2,3,4,4a,10b-hexahydrophenanthridin]",8.46
4,"CCOc1cc2c(cc1OC)C(c1ccc(S(C)(=O)=O)cc1)=N[C@H]1CCCC[C@@H]21 (racemic) [Verbindung 22, (+/-)-cis-9-Ethoxy-8-methoxy-6-(4-methansulfonylphenyl)-1,2,3,4,4a,10b-hexahydrophenanthridin]",8.66
5,"CCOc1cc2c(cc1OC)C(c1ccc(NS(=O)(=O)c3ccc(C(=O)OC)cc3)cc1)=N[C@@H]1CCCC[C@H]21 (racemic) [Verbindung 23, (+/-)-cis-9-Ethoxy-8-methoxy-6-[4-(4-methoxycarbonylphenyl)sulfonamidophenyl]-1,2,3,4,4a,10b-hexahvdrophenanthridin Hydrochlorid]",8.70
6,"CCOc1cc2c(cc1OCC)[C@@H]1CCCC[C@@H]1N=C2c1ccncc1.Cl.Cl (racemic) [Verbindung 24, (+/-)-cis-8,9-Diethoxy-6-(pyrid-4-yl)-1,2,3,4,4a,10b-hexahydrophenanthridin-dihydrochlorid]",8.08
7,"CCOc1cc2c(cc1OCC)[C@@H]1CCCC[C@@H]1N=C2c1cccnc1.Cl (racemic) [Verbindung 25, (+/-)-cis-8,9-Diethoxy-6-(pyrid-3-yl)-1,2,3,4,4a,10b-hexahydrophenanthridin-hydrochlorid]",7.96
8,"CCOc1cc2c(cc1OCC)[C@H]1CCCC[C@H]1N=C2c1ccc(Cl)nc1 (racemic) [Verbindung 26, (+/-)-cis-8,9-Diethoxy-6-(2-chiorpyrid-5-yl)-1,2,3,4,4a,10b-hexahydrophenanthridin]",8.41
9,"CCOc1cc2c(cc1OCC)[C@@H]1CCCC[C@@H]1N=C2c1ccc(O)nc1 (racemic) [Verbindung 27, (+/-)-cis-8,9-Diethoxy-6-(2-hydroxypyrid-5-yl)-1,2,3,4,4a,10b-hexahydrophenanthridin]",6.66
10,"CCOc1cc2c(cc1OC)C(c1ccc(N)cc1)=N[C@H]1CCCC[C@@H]21 (racemic) [Verbindung 29, (+/-)-cis-9-Ethoxy-8-methoxy-6-(4-aminophenyl)-1,2,3,4,4a,10b-hexahydrophenanthridin]",7.69
11,"COc1cc2c(cc1OC)[C@@H]1CCCC[C@@H]1N=C2c1ccc(N(S(=O)(=O)c2ccc([N+](=O)[O-])cc2)S(=O)(=O)c2ccc([N+](=O)[O-])cc2)cc1 (racemic) [Verbindung 30, (+/-)-cis-8,9-Dimethoxy-6-[4-bis(p-nitrophenylsulfonyl)aminophenyl]-1,2,3,4,4a,10b-hexahydrophenanthridin]",7.36
12,"COc1cc2c(cc1OC)[C@@H]1CCCC[C@@H]1N=C2c1ccc(NC(C)=O)cc1 (racemic) [Verbindung 31, (+/-)-cis-8,9-Dimethoxy-6-(4-acetamidophenyl)-1,2,3,4,4a,10b-hexahydrophenanthridin]",7.30
13,"CCOc1cc2c(cc1OC)C(c1ccc(NC(C)=O)cc1)=N[C@H]1CCCC[C@@H]21 (racemic) [Verbindung 32, (+/-)-cis-9-Ethoxy-8-methoxy-6-(4-acetamidophenyl)-1,2,3,4,4a,10b-hexahydrophenanthridin]",8.38
14,"COc1cc2c(cc1OC)[C@H]1CCCC[C@H]1N=C2c1ccc(N(S(=O)(=O)c2ccc(C)cc2)S(=O)(=O)c2ccc(C)cc2)cc1 (racemic) [Verbindung 33, (+/-)-cis-8,9-Dimethoxy-6-[4-bis(p-toluolsulfonyl)aminophenyl]-1,2,3,4,4a,10b-hexahydrophenanthridin]",7.27
15,"COc1cc2c(cc1OC)[C@H]1CCCC[C@H]1N=C2c1ccc(N(C(C)=O)S(=O)(=O)c2ccc(C)cc2)cc1 (racemic) [Verbindung 34, (+/-)-cis-8,9-Dimethoxy-6-[(N-acetyl-4-p-toluolsulfonamido)phenyl]-1,2,3,4,4a,10b-hexahydrophenanthridin]",7.42
16,"CCOc1cc2c(cc1OCC)[C@H]1CCCC[C@H]1N=C2c1ccc(N(C(C)=O)S(=O)(=O)c2ccc(C)cc2)cc1 (racemic) [Verbindung 35, (+/-)-cis-8,9-Diethoxy-6-[(N-acetyl-4-p-toluolsulfonamido]phenyl]-1,2,3,4,4a,10b-hexahydrophenanthridin]",7.81
